The values below come from ChEMBL document CHEMBL5465560, “Selectivity Literature for EUbOPEN Chemogenomic Library” (2024).

For experiment [1], the target named is RAC-beta serine/threonine-protein kinase (Homo sapiens) (UniProt P31751). As to the kind of experiment: Selectivity interaction (Rxn Biology Kinase assay) EUB0001632a AKT2. To be noted: at 10 µM.
Experiment [2] has as its target Mitogen-activated protein kinase 14 (Homo sapiens, UniProt Q16539). Description: Selectivity interaction (Kinase panel (Z-LYTE Assay)) EUB0001632a MAPK14. Particulars: at 10 µM.
In experiment [3] the target is Prostaglandin E2 receptor EP2 subtype (Homo sapiens) (UniProt P43116). Description: Selectivity interaction (Eurofins CEREP Diversity Profile (receptors and ion channels)) EUB0000279b PTGER2. To be noted: at 10 µM.
Sequence of Prostaglandin E2 receptor EP2 subtype (Homo sapiens) (P43116 whole entry): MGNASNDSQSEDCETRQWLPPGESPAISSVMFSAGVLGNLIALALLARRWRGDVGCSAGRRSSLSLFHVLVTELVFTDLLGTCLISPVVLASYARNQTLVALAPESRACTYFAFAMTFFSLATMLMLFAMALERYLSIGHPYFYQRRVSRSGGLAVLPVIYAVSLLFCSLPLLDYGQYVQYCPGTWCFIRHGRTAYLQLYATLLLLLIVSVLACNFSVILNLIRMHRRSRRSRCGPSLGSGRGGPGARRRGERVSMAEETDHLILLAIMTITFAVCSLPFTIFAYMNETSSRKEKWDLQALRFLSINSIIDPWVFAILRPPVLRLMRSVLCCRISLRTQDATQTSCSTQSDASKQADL
In experiment [4] the target is T1, Serine/threonine-protein kinase DCLK2 (Homo sapiens) (UniProt Q8N568).
T1 sequence (whole entry): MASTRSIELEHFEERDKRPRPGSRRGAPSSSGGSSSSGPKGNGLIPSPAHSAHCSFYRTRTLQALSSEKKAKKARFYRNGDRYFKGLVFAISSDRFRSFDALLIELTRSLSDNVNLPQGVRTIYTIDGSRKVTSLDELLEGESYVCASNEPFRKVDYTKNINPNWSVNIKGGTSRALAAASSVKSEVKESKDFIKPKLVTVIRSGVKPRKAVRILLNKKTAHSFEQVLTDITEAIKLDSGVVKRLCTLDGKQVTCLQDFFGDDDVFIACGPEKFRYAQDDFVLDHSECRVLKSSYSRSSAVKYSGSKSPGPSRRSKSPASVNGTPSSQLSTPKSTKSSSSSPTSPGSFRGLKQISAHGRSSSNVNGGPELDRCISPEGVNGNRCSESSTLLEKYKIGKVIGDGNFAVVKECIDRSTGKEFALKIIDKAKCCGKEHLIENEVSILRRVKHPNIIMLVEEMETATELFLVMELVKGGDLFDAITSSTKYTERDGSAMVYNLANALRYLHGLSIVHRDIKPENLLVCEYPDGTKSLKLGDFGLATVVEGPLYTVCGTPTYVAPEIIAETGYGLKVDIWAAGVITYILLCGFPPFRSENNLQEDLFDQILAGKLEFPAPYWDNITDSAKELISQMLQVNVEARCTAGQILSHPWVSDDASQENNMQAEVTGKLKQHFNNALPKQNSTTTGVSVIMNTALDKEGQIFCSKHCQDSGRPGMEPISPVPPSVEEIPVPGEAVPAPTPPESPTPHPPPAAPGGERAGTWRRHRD
As to the kind of experiment: Selectivity interaction (KinomeScan (DiscoverX)) EUB0000607a DCLK2. Particulars: at 10 µM.

In experiment [5] the target is Aurora kinase B (Homo sapiens, UniProt Q96GD4). Description: Selectivity interaction (Enzymatic assay) EUB0001550a AURKB.
Sequence of Aurora kinase B (Q96GD4 whole entry): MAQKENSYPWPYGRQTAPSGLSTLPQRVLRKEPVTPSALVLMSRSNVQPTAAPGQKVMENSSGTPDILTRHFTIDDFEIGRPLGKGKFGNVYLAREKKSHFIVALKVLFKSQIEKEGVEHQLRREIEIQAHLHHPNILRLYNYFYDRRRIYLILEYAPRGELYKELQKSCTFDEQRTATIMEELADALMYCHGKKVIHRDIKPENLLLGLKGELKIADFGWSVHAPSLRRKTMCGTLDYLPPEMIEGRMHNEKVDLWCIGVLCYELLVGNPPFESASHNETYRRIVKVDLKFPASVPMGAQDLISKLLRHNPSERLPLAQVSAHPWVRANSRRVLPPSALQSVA
The target of experiment [6] is T2, Dual specificity tyrosine-phosphorylation-regulated kinase 2 (Homo sapiens) (UniProt Q92630).
T2 sequence (whole entry): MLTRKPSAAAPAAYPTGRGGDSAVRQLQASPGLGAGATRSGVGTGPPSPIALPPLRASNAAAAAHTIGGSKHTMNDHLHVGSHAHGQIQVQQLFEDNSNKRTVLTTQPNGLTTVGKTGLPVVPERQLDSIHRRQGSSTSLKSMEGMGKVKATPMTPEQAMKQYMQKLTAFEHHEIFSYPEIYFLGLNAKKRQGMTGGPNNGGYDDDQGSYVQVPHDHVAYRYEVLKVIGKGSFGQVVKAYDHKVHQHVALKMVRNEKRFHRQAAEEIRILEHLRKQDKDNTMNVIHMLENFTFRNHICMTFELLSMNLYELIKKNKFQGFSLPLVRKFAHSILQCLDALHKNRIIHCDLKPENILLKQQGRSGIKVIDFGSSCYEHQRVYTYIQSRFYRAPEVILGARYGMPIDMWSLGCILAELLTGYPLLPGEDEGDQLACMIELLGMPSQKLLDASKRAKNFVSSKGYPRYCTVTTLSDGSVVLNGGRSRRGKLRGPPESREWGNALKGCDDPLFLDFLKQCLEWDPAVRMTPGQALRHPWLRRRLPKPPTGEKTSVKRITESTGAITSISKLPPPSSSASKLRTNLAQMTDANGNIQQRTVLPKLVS
To be noted: at 10 µM.

Experiment [7] concerns the target Mitogen-activated protein kinase 3 (Homo sapiens, UniProt P27361). As to the kind of experiment: Selectivity interaction (KinomeScan (DiscoverX)) EUB0000045b MAPK3.
The subject of experiment [8] is Receptor-type tyrosine-protein kinase FLT3 (Homo sapiens), P36888 [UNDEFINED MUTATION]. As to the kind of experiment: Selectivity interaction (KinomeScan (DiscoverX)) EUB0000311b FLT3. To be noted: at 1 µM.
Experiment [9] addresses T3, Mitogen-activated protein kinase 13 (Homo sapiens) (UniProt O15264).
T3 sequence (whole entry): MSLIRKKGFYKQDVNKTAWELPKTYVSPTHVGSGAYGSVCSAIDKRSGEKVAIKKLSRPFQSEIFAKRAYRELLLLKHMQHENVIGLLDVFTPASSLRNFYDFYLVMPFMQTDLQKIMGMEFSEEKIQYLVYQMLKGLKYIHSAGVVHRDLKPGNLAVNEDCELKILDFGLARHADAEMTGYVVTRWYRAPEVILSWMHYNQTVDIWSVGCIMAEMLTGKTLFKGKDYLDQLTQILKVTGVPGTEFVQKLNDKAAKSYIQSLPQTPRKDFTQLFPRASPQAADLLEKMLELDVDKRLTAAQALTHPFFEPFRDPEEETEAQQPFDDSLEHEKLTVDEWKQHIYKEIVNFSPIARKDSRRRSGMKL
As to the kind of experiment: Selectivity interaction (Kinase panel (literature)) EUB0001199aCl MAPK13. To be noted: at 1 µM.

Experiment [10] deals with T4, Serine/threonine-protein kinase Sgk3 (Homo sapiens) (UniProt Q96BR1).
T4 sequence (whole entry): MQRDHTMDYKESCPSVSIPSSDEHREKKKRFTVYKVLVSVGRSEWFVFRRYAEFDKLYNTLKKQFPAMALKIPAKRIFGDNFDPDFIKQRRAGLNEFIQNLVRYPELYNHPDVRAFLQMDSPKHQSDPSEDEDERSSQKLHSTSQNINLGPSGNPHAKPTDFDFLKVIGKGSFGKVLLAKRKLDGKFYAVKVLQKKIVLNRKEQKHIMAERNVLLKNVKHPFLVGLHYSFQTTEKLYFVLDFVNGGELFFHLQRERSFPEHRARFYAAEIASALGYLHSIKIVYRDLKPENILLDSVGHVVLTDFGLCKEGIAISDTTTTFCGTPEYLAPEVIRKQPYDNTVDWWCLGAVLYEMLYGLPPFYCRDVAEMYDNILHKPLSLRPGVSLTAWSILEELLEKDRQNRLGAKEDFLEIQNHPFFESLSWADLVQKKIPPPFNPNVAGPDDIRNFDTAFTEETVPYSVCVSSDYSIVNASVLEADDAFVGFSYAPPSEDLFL
Description: Selectivity interaction (KinomeScan (DiscoverX)) EUB0001049a SGK3. To be noted: at 1 µM.

Experiment [11] in a line: Selectivity interaction (Ex-vivo activation of CD20+ B cells in cynomolgus (anti-IgM/IL-4 stimulated pAKT)) EUB0000877a PIK3CD.
Experiment [12] deals with Ephrin type-A receptor 4 (Homo sapiens, UniProt P54764). Description: Selectivity interaction (KinomeScan (DiscoverX)) EUB0001079a EPHA4. Particulars: at 1 µM.
Sequence of Ephrin type-A receptor 4 (P54764 whole entry): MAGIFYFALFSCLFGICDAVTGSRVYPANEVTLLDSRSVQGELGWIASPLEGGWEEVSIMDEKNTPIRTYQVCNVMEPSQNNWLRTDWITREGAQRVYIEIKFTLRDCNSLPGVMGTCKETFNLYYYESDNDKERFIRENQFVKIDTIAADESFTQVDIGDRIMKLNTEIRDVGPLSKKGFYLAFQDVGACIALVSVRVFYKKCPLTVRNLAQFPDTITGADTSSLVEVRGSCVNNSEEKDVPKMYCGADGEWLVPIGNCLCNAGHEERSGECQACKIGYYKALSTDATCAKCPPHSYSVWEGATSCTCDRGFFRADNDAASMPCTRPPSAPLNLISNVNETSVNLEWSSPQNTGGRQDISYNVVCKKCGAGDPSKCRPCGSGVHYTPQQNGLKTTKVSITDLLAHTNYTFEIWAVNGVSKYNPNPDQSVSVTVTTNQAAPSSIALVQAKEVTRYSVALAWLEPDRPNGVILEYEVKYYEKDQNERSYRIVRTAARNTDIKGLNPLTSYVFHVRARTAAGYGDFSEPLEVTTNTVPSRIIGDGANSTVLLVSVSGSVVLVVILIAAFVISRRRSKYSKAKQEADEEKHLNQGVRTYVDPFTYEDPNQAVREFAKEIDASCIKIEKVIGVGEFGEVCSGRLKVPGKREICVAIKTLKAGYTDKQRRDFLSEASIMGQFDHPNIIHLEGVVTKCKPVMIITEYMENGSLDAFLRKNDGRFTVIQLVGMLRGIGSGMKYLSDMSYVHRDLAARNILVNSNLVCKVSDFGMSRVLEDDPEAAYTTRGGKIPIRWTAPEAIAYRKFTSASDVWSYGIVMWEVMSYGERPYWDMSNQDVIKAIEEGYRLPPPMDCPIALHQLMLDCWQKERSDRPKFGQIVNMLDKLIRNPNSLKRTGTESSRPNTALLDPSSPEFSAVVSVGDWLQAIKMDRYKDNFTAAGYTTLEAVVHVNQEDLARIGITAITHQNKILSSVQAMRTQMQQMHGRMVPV

Sequence of Mitogen-activated protein kinase 3 (P27361 whole entry): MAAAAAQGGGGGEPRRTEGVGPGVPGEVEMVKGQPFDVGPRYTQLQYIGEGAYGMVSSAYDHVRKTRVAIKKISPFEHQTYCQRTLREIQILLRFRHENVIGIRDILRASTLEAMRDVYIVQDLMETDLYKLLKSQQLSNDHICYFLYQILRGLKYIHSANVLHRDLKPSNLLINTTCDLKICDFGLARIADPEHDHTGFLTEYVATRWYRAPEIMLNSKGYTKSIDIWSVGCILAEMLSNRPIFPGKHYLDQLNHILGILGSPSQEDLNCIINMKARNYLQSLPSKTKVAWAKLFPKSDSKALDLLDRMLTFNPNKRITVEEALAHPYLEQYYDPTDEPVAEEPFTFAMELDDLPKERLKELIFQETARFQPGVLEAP
Sequence of Receptor-type tyrosine-protein kinase FLT3 (Homo sapiens), P36888 [UNDEFINED MUTATION] (P36888 whole entry, looked up, change not shown): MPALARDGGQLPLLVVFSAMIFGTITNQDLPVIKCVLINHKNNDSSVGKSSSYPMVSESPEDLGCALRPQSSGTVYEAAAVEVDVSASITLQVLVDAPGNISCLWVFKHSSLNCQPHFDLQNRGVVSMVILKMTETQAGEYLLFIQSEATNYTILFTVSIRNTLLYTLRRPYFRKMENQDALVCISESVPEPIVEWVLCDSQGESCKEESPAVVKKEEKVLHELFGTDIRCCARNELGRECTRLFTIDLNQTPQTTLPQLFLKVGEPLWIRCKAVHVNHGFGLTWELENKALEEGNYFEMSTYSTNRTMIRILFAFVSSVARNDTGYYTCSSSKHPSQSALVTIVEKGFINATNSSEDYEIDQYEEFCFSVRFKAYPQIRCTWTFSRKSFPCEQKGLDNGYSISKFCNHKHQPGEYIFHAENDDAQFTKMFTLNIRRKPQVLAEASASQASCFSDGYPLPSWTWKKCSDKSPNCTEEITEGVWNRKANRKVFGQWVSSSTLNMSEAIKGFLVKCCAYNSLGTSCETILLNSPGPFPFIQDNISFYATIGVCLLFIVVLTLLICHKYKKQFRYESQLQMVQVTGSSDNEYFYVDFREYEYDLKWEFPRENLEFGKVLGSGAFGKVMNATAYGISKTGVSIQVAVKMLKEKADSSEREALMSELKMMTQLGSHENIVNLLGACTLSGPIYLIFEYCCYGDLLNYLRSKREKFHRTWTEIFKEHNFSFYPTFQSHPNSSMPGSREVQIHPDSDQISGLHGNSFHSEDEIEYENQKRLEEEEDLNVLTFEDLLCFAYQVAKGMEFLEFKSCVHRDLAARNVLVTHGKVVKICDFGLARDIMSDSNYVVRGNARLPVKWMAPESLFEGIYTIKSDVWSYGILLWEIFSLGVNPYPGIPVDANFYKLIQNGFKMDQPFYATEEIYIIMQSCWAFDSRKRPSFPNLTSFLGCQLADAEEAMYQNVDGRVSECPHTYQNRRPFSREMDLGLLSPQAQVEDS
Sequence of Mitogen-activated protein kinase 14 (Q16539 whole entry): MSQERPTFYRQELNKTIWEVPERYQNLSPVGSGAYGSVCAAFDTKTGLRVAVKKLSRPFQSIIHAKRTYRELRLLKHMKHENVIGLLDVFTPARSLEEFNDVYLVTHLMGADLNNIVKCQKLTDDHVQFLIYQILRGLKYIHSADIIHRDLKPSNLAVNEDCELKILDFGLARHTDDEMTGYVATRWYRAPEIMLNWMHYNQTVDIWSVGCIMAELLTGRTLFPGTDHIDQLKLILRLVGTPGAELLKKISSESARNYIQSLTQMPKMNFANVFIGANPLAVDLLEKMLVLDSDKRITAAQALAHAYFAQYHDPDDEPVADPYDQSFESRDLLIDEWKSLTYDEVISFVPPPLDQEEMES
Sequence of RAC-beta serine/threonine-protein kinase (Homo sapiens) (P31751 whole entry): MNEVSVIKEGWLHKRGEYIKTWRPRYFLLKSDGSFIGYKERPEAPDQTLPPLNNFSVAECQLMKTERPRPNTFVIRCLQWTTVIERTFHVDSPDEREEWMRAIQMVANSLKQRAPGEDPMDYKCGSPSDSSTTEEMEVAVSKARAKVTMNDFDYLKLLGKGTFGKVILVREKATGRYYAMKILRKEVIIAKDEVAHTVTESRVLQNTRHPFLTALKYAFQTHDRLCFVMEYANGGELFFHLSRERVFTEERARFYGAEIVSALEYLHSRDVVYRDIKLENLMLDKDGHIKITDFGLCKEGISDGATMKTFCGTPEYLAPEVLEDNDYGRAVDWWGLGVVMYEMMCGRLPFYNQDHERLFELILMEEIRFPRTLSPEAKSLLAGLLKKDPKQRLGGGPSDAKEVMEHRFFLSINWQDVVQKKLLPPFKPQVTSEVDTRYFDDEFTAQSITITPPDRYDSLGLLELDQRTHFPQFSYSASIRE

Turning to `Cn1cc(-n2cnc3c(NCc4nc5cc(Cl)c(Cl)cc5[nH]4)nc(N4CCOCC4)nc32)cn1`, the % of inhibition in experiment [1] was 1.65%. Moreover, in experiment [2], the % of control is -3.84%.

As to `CC(=O)c1cc(-c2ccccc2OCC2CC2)c2ncccn12`, in [3], the % of control was 95%.

As for `CNC(=O)Nc1ccc(-c2nc(N3CC4CCC(C3)O4)c3cnn(C4CCC5(CC4)OCCO5)c3n2)cc1`, in experiment [4], the % of control worked out at 97%.

On to `CN(C)CC#Cc1ccc2[nH]c3c(c2c1)-c1nc(N)ncc1CCC3`, for which, in experiment [5], half-maximal inhibition (IC50) was put at 1400 nM. That is a single-digit micromolar value.

In the case of `Cc1cc([C@@H](C)Nc2ccccc2C(=O)O)c2nc(N3CCOCC3)cc(=O)n2c1` [AZD-6482], the % of control in [6] was 89%.

With `C=CC(=O)Nc1cc(-n2c(=O)ccc3cnc4ccc(-c5ccc(NS(C)(=O)=O)cc5)cc4c32)ccc1C`, the figures for the % of control in [7] (at 1 µM) and in [7] (at 10 µM) were 100% and 79%, respectively.

As to `CCc1ccccc1C(=O)Nc1n[nH]c2c(C)c(F)c(C3C(C#N)=C(C)N(C)C(C)=C3C#N)cc12` [BAY-3827], the % of control in [8] is 12%.

Regarding `CN1Cc2nccc(-c3cn(C)nc3-c3ccc(F)cc3)c2C1=O`, the % of inhibition in experiment [9] is 10%.

On to `COc1cc(Nc2nc(C)cc(-c3cnn4nc(OC)ccc34)n2)cc(C(F)(F)F)c1`, for which the % of control in experiment [10] amounted to 74%.

For `CCC(=O)N1CC[C@H](Nc2ncnc3c2CN(c2cnc(OC)c(C(F)(F)F)c2)CC3)C1` [LENIOLISIB], the 50% effective concentration (EC50) – broadly, the concentration giving half of the maximal effect – in experiment [11] was determined as 140 nM.

On to `Nc1cnc(N2CCc3cc(S(=O)(=O)Nc4c(F)cc(Cl)cc4F)cc(N4CCCC4=O)c32)nc1` [TP-020n], for which, in experiment [12], the % of control is 100%.
